{"source": "patent US20030022794A1", "about": "“Novel quaternary salts and their use in agricultural formulations” (priority 1997, published 2003)", "assay_type_in_all_cases": "physicochemical", "key": {"[1]": {"assay": "solubility in organic solvents (epoxidized soybean oil, methyl caprylate/caprate, cottonseed oil)", "experimental": "(§1) Tetradodecyl ammonium bromide was dissolved in 5 mL of CH2Cl2 and stirred with 3.3 mL of 1 N NaOH. To this was added 1.27 g of N-[[(4,6-dimethoxypyrimidine-2-yl)amino]carbonyl]-1-methyl-4-(2-methyl-2H-tetrazol-5-yl)-H-pyrazole-5-sulfonamide (97.8%) dissolved in 5 mL of CH2Cl2 and stirring continued for 5 min at 25° C. The organic phase was separated, washed with water, dried and the solvent removed tinder vacuum in a rotary evaporator at a maximum of 50° C. The resulting viscous, colorless oil gave an assay of 35% of the corresponding sulfonylurea quaternary salt (vs. 38% theory) using HPLC. This oil was more than-50% soluble in epoxidized soybean oil, methyl caprylate/caprate, and cottonseed oil. 50% solutions of the resultant sulfonylurea quaternary salt in these three solvents were aged 1 week at 54° C., giving 20-45% relative degradation by HPLC analysis."}, "[2]": {"assay": "storage stability on aging, decomposition of the sulfonylurea measured by HPLC", "experimental": "To 21.57 g 2-[[[[(4,6-dimethoxy-2-pyrimidinyl)amino]carbonyl]-amino]sulfonyl]-N,N-dimethyl-3-pyridinecarboxamide and 50 mL 1.0 N NaOH in 1400 mL methylene chloride was incrementally added 22.37 g of diisobutylphenoxy ethoxyethyl dimethylbenzyl ammonium chloride (Hyamine 1622, commercially available from Lonza), with several small methylene chloride washes to facilitate transfer. The reaction medium was filtered through a bed of molecular sieves to remove mineral salts and water. Methylene chloride was stripped to recover the white powder. Upon aging for 1 week at 54 C., 9% relative decomposition of the sulfonylurea resulted as measured by HPLC.\nInto 7.8 g of epoxidized soybean oil (ESBO) was added with stirring: 1.18 g methyl 3-[[[[(4-methoxy-6-methyl-1,3,5-triazin-2-yl)amino]carbonyl]amino]sulfonyl]-2-thiophenecarboxylate tech (98.1%), 1.31 g of anhydrous diisobutylphenoxy ethoxyethyl dimethylbenzyl ammonium chloride […] (Hyamine 1622, available from Lonza), 0.11 g Ca(OH)2, and 0.03 g calcium acetate. The mixture was aged 3 weeks at 45° C. giving 0% relative decomposition of the sulfonylurea as measured by HPLC.\nA solution on 15 g of methyl 2-[[[[(4-methoxy-6-methyl-1,3,5-triazin-2-yl)methylamino]carbonyl]amino]sulfonyl]benzoate tech (95.7%) and 18 g of Na2CO3 in 300 g of CH2Cl2 was treated with 1.5 g of NaOH and stirred 2 h. 8.65 g of benzyl triethyl ammonium chloride was added to the suspension and the mixture stirred overnight. The suspension was filtered and the filtrate stripped of solvent on a rotary evaporator yielding the corresponding sulfonylurea quaternary salt as a viscous yellow oil (15.7 g) using 1 g of the oil, a 20% solution of the quaternary salt was made in triethyl phosphate. Upon aging for 1 week at 54° C., 1% relative decomposition of the sulfonylurea resulted as indicated by HPLC.\nA quaternary salt sulfonylurea was prepared using the procedure of Example 3 with 20 g methyl 2-[[[[(4-methoxy-6-methyl-1,3,5-triazin-2-yl)methylamino]carbonyl]-amino]sulfonyl]benzoate, 30 g Na2CO3, 400 g CH2Cl2, 2 g NaOH and 11.5 g benzyl triethyl ammonium chloride. One gram of the resulting orange viscous oil was made up as a 20% solution in triethyl phosphate. Upon aging for 1 week at 54° C., 2% relative decomposition of the sulfonylurea resulted as indicated by HPLC.\nas §1\nIn a vial was vortexed the following: 0.214 g methyl 2-[[[[[(4,6-dimethoxy-2-pyrimidinyl)amino]carbonyl]amino]sulfonyl]methyl]benzoate (98.3%), 0.192 g of a 25% aqueous solution of tetramethyl ammonium hydroxide, and 4.32 g of water to produce the sulfonylurea quaternary salt. Upon aging the solution at 54° C. for one week, 52% degradation of the sulfonylurea resulted as measured by HPLC.\n(§2) Deionized water (5 g) was saturated with 2-[[[[(4,6-dimethoxy-2-pyrimidinyl)amino]carbonyl]amino]sulfonyl]-N,N-dimethyl-3-pyridinencarboxamide tech (500 ppm) and aged at 25° C. for 30 days."}, "[3]": {"assay": "saturation of deionized water", "details": "tech material", "experimental": "as §2"}, "[4]": {"details": "20% solution in triethyl phosphate, aging 1 week at 54° C., HPLC"}}}
{"compound": "CCCCCCCCCCCC[N+](CCCCCCCCCCCC)(CCCCCCCCCCCC)CCCCCCCCCCCC.COc1cc(OC)nc(NC(=O)[N-]S(=O)(=O)c2c(-c3nnn(C)n3)cnn2C)n1", "note": "[A]", "values": [{"measurement": "solubility", "setting": "[1]", "value": "> 50", "unit": "%"}, {"measurement": "relative degradation", "setting": "[2]", "value": "20-45%"}]}
{"compound": "COC(=O)c1ccccc1CS(=O)(=O)[N-]C(=O)Nc1nc(OC)cc(OC)n1.C[N+](C)(C)C", "note": "[B]", "values": [{"measurement": "degradation of the sulfonylurea", "setting": "[2]; aqueous solution, aging at 54° C. for one week, HPLC", "value": 52, "unit": "%"}]}
{"compound": "COc1cc(OC)nc(NC(=O)NS(=O)(=O)c2ncccc2C(=O)N(C)C)n1", "note": "[C, 2-[[[[(4,6-dimethoxy-2-pyrimidinyl)amino]carbonyl]amino]sulfonyl]-N,N-dimethyl-3-pyridinencarboxamide]", "values": [{"measurement": "concentration at saturation in deionized water", "setting": "[3]", "value": 500, "unit": "ppm"}]}
{"compound": "COc1cc(OC)nc(NC(=O)NS(=O)(=O)c2c(-c3nnn(C)n3)cnn2C)n1", "note": "[N-[[(4,6-dimethoxypyrimidine-2-yl)amino]carbonyl]-1-methyl-4-(2-methyl-2H-tetrazol-5-yl)-1H-pyrazole-5-sulfonamide]", "values": [{"measurement": "solubility (in words)", "setting": "[1]; in epoxidized soybean oil, methyl caprylate/caprate, and cottonseed oil", "value": "practically insoluble"}]}
{"compound": "In situ Quaternary Salt of Methyl 3-[[[[(4-Methoxy-6-Methyl-1,3,5-Triazin-2-yl)Amino]carbonyl]amino]sulfonyl]-2-Thiophenecarboxylate [Example 2]", "values": [{"measurement": "relative decomposition of the sulfonylurea", "setting": "[2]; in situ mixture in epoxidized soybean oil with Ca(OH)2 and calcium acetate, aged 3 weeks at 45° C., HPLC", "value": 0, "unit": "%"}]}
{"compound": "Quaternary Salt of Methyl 2-[[[[(4-Methoxy-6-Methyl-1,3,5-Triazin-0.2-yl)Methylamino]carbonyl]amino]sulfonyl]benzoate [Example 3]", "values": [{"measurement": "relative decomposition of the sulfonylurea", "setting": "[2]; [4]", "value": 1, "unit": "%"}]}
{"compound": "Quaternary Salt of Methyl 2-[[[[(4-Methoxy-6-Methyl-1,3,5-Triazin-2-yl)Methylamino]carbonyl]amino]sulfonyl]benzoate [Example 4]", "values": [{"measurement": "relative decomposition of the sulfonylurea", "setting": "[2]; [4]", "value": 2, "unit": "%"}]}
{"compound": "Quaternary salt of 2-[[[[(4.6-Dimethoxy-2-Pyrimidinyl)amino]carbonyl]amino]sulfonyl]-N,N-Dimethyl-3-Pyridinecarboxamide [Example 1]", "values": [{"measurement": "relative decomposition of the sulfonylurea", "setting": "[2]; isolated white powder, aging 1 week at 54 C, HPLC", "value": 9, "unit": "%"}]}
